Measured values from PubChem BioAssay (NCI).
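How tested: cells in 96-well plates exposed to compound for 48 hours at five concentrations. At the TGI there is no net growth.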

Columns and labels:
Assay in all cases: growth of human tumour cells (NCI), 48 h
TK-10 renal = test system: TK-10 renal
CCRF-CEM leukemia = test system: CCRF-CEM leukemia
HT29 colon = test system: HT29 colon
HL-60(TB) leukemia = test system: HL-60(TB) leukemia
CAKI-1 renal = test system: CAKI-1 renal
SN12C renal = test system: SN12C renal
A498 renal = test system: A498 renal
UACC-257 melanoma = test system: UACC-257 melanoma
MDA-N = test system: MDA-N
SK-OV-3 ovarian = test system: SK-OV-3 ovarian
SF-295 CNS = test system: SF-295 CNS

SMILES	TGI (TK-10 renal) [µM]	TGI (CCRF-CEM leukemia) [µM]	TGI (HT29 colon) [µM]	TGI (HL-60(TB) leukemia) [µM]	TGI (CAKI-1 renal) [µM]	TGI (SN12C renal) [µM]	TGI (A498 renal) [µM]	TGI (UACC-257 melanoma) [µM]	TGI (MDA-N) [µM]	TGI (SK-OV-3 ovarian) [µM]	TGI (SF-295 CNS) [µM]
CC12CCC3=C(CSC4=C3CSc3ccccc34)C1=CCCC2=O (centres undefined)	> 100	> 100	> 100	> 100	> 100	> 100					
Cc1cc(S(=O)(=O)Nc2nc(N)n(-c3ccccc3)n2)c(S)cc1Cl	> 100	> 100	> 100	> 100	> 100	> 100	> 100	> 100	> 100	> 100	
CSc1nc(NC2CC2)c2c(n1)Sc1nc3ccccc3n1N=C2	62.4	> 100	> 100		> 100	33.4	60.8	> 100	> 100	45.9	
COC(=O)[C@@]12CC3CN(Cc4c1[nH]c1ccccc41)C2CC3=O	> 100	> 100	> 100	> 100	> 100	> 100		> 100	> 100	> 100	> 100
O=C(O)CC(Cc1ccccc1)C(=O)O (centres undefined)	> 100	> 100	> 100		> 100	> 100	> 100	> 100	> 100	> 100	> 100
COc1c2c(cc3oc(=O)ccc13)OC(C)(C)C=C2	> 125		> 125	45.2	29	100		85.2	91.7	> 125	> 125
O=c1[nH]nc(Nc2ccccc2)c2nnn(Cc3ccccc3)c12	> 100	> 100	> 100	> 100	> 100	> 100	> 100	> 100	> 100		> 100
C=CCCCN1C(=O)C2C3c4ccccc4C(C=O)(c4ccccc43)C2C1=O (centres undefined)	30.2	17.6	27.5	34.5	50.9	22.2		28.9	27.9	60.3	26.1
NCCCCN(CCCN)C(=O)OCc1ccccc1	> 100	> 100	> 100	> 100	> 100	> 100	> 100	> 100		> 100	> 100
CCOC(=O)C(C(N)=O)c1nc2cc([N+](=O)[O-])ccc2nc1/C=C(\O)c1ccc(C)cc1 (centres undefined)	30.2	> 100	> 100		> 100	85.5	> 67.7	> 100	> 100	39.4	43.6
